Blank lines part the entries; values can stand above or below the compound they belong to.
System: 653999-131-R-J2-PDC complex spheroids, growth % test/control
Assay: Anticancer human tumor 653999-131-R-J2-PDC patient-derived lung adenocarcinoma cell line growth inhibition [AhR]
Conditions: for IC50: curve of first compound; for viability, T/C: stronger effect = lower value
Procedure, shortened: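 Spheroids combined tumor cells with HUVEC endothelial cells and human MSCs as stroma. AhR antagonists were paired with standard or investigational drugs, each dosed in half-log steps down from near clinical Cmax, or from 10 microM where Cmax was unknown.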

[1] = second compound 0.1 µM, first compound 0.00949 µM
[2] = second compound 0.1 µM, first compound 0.03 µM
[3] = second compound 0.1 µM, first compound 0.0949 µM
[4] = second compound 0.1 µM, first compound 0.3 µM
[5] = second compound 0.316 µM, first compound 0.00949 µM
[6] = second compound 0.316 µM, first compound 0.03 µM
[7] = second compound 0.316 µM, first compound 0.0949 µM
[8] = second compound 0.316 µM, first compound 0.3 µM
[9] = second compound 1 µM, first compound 0.00949 µM
[10] = second compound 1 µM, first compound 0.03 µM
[11] = second compound 1 µM, first compound 0.0949 µM
[12] = second compound 1 µM, first compound 0.3 µM
[13] = second compound 3.16 µM, first compound 0.00949 µM
[14] = second compound 3.16 µM, first compound 0.03 µM
[15] = second compound 3.16 µM, first compound 0.0949 µM
[16] = second compound 3.16 µM, first compound 0.3 µM
[17] = second compound 10 µM, first compound 0.00949 µM
[18] = second compound 10 µM, first compound 0.03 µM
[19] = second compound 10 µM, first compound 0.0949 µM
[20] = second compound 10 µM, first compound 0.3 µM
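Further: spheroids exposed to agents for seven days.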
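Wherever viability, T/C is given: 100% = DMSO vehicle control viability.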

IC50 (second compound 0.1 µM): 8890 nM | IC50 (second compound 0.316 µM): > 10000 nM | IC50 (second compound 1 µM): > 10000 nM | IC50 (second compound 3.16 µM): > 10000 nM | IC50 (second compound 10 µM): > 10000 nM
Structure (SMILES): COc1ccc([C@@H](O)c2cc(-c3ncnc4cc(N5CCOCC5)ccc34)c(F)cc2Cl)nn1 + Cc1cncc(-c2nc(NCCc3c[nH]c4ccccc34)c3ncn(C(C)C)c3n2)c1
viability, T/C (second compound 0.1 µM, first compound 0.0316 µM): 97.7% | viability, T/C (second compound 0.1 µM, first compound 0.1 µM): 121% | viability, T/C (second compound 0.1 µM, first compound 0.316 µM): 103% | viability, T/C (second compound 0.1 µM, first compound 1 µM): 82.4% | viability, T/C (second compound 0.1 µM, first compound 3.16 µM): 72.5% | viability, T/C (second compound 0.1 µM, first compound 10 µM): 46.7% | viability, T/C (second compound 0.316 µM, first compound 0.0316 µM): 121% | viability, T/C (second compound 0.316 µM, first compound 0.1 µM): 122% | viability, T/C (second compound 0.316 µM, first compound 0.316 µM): 102% | viability, T/C (second compound 0.316 µM, first compound 1 µM): 99.9% | viability, T/C (second compound 0.316 µM, first compound 3.16 µM): 73% | viability, T/C (second compound 0.316 µM, first compound 10 µM): 54.4% | viability, T/C (second compound 1 µM, first compound 0.0316 µM): 116% | viability, T/C (second compound 1 µM, first compound 0.1 µM): 123% | viability, T/C (second compound 1 µM, first compound 0.316 µM): 122% | viability, T/C (second compound 1 µM, first compound 1 µM): 101% | viability, T/C (second compound 1 µM, first compound 3.16 µM): 87.8% | viability, T/C (second compound 1 µM, first compound 10 µM): 61% | viability, T/C (second compound 3.16 µM, first compound 0.0316 µM): 125% | viability, T/C (second compound 3.16 µM, first compound 0.1 µM): 119% | viability, T/C (second compound 3.16 µM, first compound 0.316 µM): 138% | viability, T/C (second compound 3.16 µM, first compound 1 µM): 93% | viability, T/C (second compound 3.16 µM, first compound 3.16 µM): 83.3% | viability, T/C (second compound 3.16 µM, first compound 10 µM): 60.5% | viability, T/C (second compound 10 µM, first compound 0.0316 µM): 55.7% | viability, T/C (second compound 10 µM, first compound 0.1 µM): 58.9% | viability, T/C (second compound 10 µM, first compound 0.316 µM): 66.2% | viability, T/C (second compound 10 µM, first compound 1 µM): 65.7% | viability, T/C (second compound 10 µM, first compound 3.16 µM): 66.3% | viability, T/C (second compound 10 µM, first compound 10 µM): 55.5%

IC50 (second compound 0.1 µM): > 300 nM | IC50 (second compound 0.316 µM): > 300 nM | IC50 (second compound 1 µM): > 300 nM | IC50 (second compound 3.16 µM): > 300 nM | IC50 (second compound 10 µM): > 300 nM
Structure (SMILES): Nc1ncn(C2CC(O)C(CO)S2)c(=O)n1 (stereo not given) + Cc1cncc(-c2nc(NCCc3c[nH]c4ccccc34)c3ncn(C(C)C)c3n2)c1
viability, T/C (second compound 0.1 µM, first compound 0.000949 µM): 106% | viability, T/C (second compound 0.1 µM, first compound 0.003 µM): 95.4% | viability, T/C [1]: 93.7% | viability, T/C [2]: 90.4% | viability, T/C [3]: 93.2% | viability, T/C [4]: 82.5% | viability, T/C (second compound 0.316 µM, first compound 0.000949 µM): 102% | viability, T/C (second compound 0.316 µM, first compound 0.003 µM): 99.8% | viability, T/C [5]: 101% | viability, T/C [6]: 94.3% | viability, T/C [7]: 88.7% | viability, T/C [8]: 85.7% | viability, T/C (second compound 1 µM, first compound 0.000949 µM): 106% | viability, T/C (second compound 1 µM, first compound 0.003 µM): 111% | viability, T/C [9]: 121% | viability, T/C [10]: 109% | viability, T/C [11]: 106% | viability, T/C [12]: 103% | viability, T/C (second compound 3.16 µM, first compound 0.000949 µM): 84.1% | viability, T/C (second compound 3.16 µM, first compound 0.003 µM): 87.8% | viability, T/C [13]: 93.4% | viability, T/C [14]: 84.7% | viability, T/C [15]: 66.5% | viability, T/C [16]: 73% | viability, T/C (second compound 10 µM, first compound 0.000949 µM): 65% | viability, T/C (second compound 10 µM, first compound 0.003 µM): 50.9% | viability, T/C [17]: 58% | viability, T/C [18]: 44% | viability, T/C [19]: 53% | viability, T/C [20]: 52.7%

IC50 (second compound 0.1 µM): 233 nM | IC50 (second compound 0.316 µM): 293 nM | IC50 (second compound 1 µM): 514 nM | IC50 (second compound 3.16 µM): 376 nM | IC50 (second compound 10 µM): 48.5 nM
Structure (SMILES): O=C(C=Cn1cnc(-c2cc(C(F)(F)F)cc(C(F)(F)F)c2)n1)NNc1cnccn1 + Cc1cncc(-c2nc(NCCc3c[nH]c4ccccc34)c3ncn(C(C)C)c3n2)c1
viability, T/C [1]: 91.2% | viability, T/C [2]: 65.8% | viability, T/C [3]: 62.2% | viability, T/C [4]: 45.2% | viability, T/C (second compound 0.1 µM, first compound 0.949 µM): 43.8% | viability, T/C (second compound 0.1 µM, first compound 3 µM): 38.3% | viability, T/C [5]: 85% | viability, T/C [6]: 74% | viability, T/C [7]: 64.2% | viability, T/C [8]: 50.3% | viability, T/C (second compound 0.316 µM, first compound 0.949 µM): 39.3% | viability, T/C (second compound 0.316 µM, first compound 3 µM): 43.1% | viability, T/C [9]: 95.9% | viability, T/C [10]: 77.8% | viability, T/C [11]: 66.4% | viability, T/C [12]: 50.1% | viability, T/C (second compound 1 µM, first compound 0.949 µM): 48.4% | viability, T/C (second compound 1 µM, first compound 3 µM): 42.1% | viability, T/C [13]: 95.4% | viability, T/C [14]: 86.7% | viability, T/C [15]: 74.9% | viability, T/C [16]: 51.5% | viability, T/C (second compound 3.16 µM, first compound 0.949 µM): 40.9% | viability, T/C (second compound 3.16 µM, first compound 3 µM): 41% | viability, T/C [17]: 59.2% | viability, T/C [18]: 49.8% | viability, T/C [19]: 52.2% | viability, T/C [20]: 40% | viability, T/C (second compound 10 µM, first compound 0.949 µM): 34.9% | viability, T/C (second compound 10 µM, first compound 3 µM): 37.6%
